These are literature values, as cited in patent US9326991B2, “Nucleotide prodrug compounds and use” (LIGAND PHARMACEUTICALS INC., priority 2012, dated 2016).

The conditions of the data set: human subjects.

Molecules are shown by their SMILES.

On to `NC(=O)c1ncn([C@@H]2O[C@H](CO)[C@@H](O)[C@H]2O)n1` [Ribavirin, 1-((2R,3R,4S,5R)-3,4-dihydroxy-5-(hydroxymethyl)oxolan-2-yl)-1H-1,2,4-triazole-3-carboxamide], for which the half-life is reported as around 12 days.
